From patent publication US9549932B2, “2-(morpholin-4-yl)-1,7-naphthyridines” (BAYER PHARMA AKTIENGESELLSCHAFT, priority 2014, dated 2017)
Like-named read-outs stand apart in the source and are kept apart here.

Molecular target: full-length human ATR protein (Homo sapiens (Human), UniProt Q13535)
Experiment: Binding assay ATR (TR-FRET tracer displacement)
Conditions: TR-FRET
Method in brief: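 Full-length human GST-ATR co-purified with ATRIP, pre-complexed 30 min at 22 °C with anti-GST-Tb antibody, then pre-bound with compound 10 min. Tracer A or B added (2 µl of 100 nM solution), 30 min at 22 °C.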

[1] = tracer A, read-out: ATR binding (tracer A) IC50
[2] = tracer B, read-out: ATR binding (tracer B) IC50

Chain of full-length human ATR protein (Q13535 other isoform, or with tags, fused parts or gaps): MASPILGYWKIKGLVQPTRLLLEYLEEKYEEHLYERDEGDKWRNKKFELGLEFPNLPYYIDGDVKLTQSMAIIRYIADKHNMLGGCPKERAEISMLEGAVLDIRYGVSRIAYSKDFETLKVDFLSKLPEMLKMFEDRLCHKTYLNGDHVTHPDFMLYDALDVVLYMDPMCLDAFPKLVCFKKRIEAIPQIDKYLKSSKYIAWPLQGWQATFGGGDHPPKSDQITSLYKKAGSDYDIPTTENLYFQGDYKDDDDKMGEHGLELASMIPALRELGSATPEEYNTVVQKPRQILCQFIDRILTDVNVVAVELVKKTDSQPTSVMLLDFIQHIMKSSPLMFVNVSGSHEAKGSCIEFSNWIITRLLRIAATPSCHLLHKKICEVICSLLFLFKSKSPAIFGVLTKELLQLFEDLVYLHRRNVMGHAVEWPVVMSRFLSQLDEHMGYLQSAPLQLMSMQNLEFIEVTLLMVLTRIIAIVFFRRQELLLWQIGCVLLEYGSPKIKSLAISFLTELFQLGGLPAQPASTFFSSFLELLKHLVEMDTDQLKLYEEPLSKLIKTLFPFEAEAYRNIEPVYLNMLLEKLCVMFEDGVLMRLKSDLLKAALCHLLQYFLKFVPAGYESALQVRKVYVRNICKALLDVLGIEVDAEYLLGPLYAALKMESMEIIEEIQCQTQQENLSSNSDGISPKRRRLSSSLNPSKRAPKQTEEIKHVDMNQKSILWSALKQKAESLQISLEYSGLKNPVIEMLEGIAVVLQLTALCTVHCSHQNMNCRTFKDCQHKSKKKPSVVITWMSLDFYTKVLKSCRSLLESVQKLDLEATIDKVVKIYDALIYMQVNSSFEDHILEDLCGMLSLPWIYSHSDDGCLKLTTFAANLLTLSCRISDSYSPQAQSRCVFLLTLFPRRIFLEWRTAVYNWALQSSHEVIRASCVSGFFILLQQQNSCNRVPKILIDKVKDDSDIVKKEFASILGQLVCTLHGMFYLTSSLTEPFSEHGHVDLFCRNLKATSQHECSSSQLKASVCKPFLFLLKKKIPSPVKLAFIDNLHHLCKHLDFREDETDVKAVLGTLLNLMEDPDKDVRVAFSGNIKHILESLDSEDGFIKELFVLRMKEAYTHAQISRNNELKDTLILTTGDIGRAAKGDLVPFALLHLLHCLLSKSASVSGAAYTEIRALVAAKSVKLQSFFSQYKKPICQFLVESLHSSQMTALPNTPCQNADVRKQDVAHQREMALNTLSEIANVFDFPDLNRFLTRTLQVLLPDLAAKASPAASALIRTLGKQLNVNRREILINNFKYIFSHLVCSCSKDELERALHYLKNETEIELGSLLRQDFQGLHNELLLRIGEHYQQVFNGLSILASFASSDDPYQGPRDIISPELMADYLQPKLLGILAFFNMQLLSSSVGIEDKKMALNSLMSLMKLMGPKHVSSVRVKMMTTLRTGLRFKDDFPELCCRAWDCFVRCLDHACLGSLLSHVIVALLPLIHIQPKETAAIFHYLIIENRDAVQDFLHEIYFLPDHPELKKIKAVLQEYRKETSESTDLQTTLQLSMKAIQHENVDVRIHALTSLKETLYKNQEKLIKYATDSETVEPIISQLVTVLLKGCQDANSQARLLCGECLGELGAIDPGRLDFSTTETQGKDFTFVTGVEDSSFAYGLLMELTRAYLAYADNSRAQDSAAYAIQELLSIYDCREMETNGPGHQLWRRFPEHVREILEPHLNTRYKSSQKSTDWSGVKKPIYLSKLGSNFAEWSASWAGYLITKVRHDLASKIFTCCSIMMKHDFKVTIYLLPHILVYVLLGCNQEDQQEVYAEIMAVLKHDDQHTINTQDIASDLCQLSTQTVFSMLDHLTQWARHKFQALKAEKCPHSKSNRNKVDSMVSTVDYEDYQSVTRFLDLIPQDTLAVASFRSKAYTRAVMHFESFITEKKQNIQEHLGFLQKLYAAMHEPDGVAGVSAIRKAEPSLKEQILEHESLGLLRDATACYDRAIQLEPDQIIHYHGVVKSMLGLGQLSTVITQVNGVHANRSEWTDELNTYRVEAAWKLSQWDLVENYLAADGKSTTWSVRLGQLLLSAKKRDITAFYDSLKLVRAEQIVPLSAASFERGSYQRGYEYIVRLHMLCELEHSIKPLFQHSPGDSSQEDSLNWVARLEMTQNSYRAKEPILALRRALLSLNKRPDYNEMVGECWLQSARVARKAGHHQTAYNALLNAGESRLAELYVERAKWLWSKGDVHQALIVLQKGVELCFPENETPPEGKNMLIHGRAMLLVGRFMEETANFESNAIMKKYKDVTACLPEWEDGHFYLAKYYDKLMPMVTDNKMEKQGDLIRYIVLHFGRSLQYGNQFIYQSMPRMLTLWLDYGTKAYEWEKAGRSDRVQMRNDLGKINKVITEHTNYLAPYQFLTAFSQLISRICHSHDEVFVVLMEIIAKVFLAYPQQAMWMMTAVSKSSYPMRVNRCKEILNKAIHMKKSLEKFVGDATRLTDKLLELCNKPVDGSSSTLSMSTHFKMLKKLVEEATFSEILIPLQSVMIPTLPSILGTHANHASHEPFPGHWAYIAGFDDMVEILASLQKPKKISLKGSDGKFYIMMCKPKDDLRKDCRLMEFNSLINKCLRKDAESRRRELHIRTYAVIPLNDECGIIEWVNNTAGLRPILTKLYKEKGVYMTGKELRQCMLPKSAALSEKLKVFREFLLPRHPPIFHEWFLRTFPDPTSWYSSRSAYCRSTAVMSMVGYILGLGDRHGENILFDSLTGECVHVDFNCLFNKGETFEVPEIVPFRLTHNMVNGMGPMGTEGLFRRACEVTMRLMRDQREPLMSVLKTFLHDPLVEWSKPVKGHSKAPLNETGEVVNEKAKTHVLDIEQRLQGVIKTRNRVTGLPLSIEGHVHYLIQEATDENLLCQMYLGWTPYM
Chain of full-length human ATR protein (Q8WXE1 other isoform, or with tags, fused parts or gaps partner): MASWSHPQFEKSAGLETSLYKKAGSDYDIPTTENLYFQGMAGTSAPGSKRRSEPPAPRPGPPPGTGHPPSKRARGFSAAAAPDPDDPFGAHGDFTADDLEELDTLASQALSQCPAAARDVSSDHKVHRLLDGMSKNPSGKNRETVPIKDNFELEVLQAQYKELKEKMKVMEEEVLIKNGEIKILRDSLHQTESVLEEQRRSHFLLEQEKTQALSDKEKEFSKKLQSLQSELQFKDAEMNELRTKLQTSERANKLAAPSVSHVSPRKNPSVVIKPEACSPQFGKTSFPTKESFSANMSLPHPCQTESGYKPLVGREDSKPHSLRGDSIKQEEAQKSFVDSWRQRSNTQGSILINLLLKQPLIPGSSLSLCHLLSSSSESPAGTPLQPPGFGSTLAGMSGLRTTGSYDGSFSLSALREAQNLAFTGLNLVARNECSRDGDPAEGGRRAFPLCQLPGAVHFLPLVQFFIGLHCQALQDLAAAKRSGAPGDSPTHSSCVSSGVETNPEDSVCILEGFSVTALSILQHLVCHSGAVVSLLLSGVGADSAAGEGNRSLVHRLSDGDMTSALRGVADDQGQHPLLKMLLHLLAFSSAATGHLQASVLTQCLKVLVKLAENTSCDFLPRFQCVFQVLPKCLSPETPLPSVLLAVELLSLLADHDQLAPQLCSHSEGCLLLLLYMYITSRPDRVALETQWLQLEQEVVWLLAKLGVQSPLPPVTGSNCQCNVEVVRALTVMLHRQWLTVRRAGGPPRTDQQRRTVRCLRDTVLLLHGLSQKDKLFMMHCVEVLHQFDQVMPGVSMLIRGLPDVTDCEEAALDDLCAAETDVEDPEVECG

**Q.** Which IC50 [1] does the source give for `C[C@@H]1COCCN1c1cc(-c2ccc(S(C)(=O)=O)cc2F)c2ccnc(-c3ccn[nH]3)c2n1` [Example 74, 4-[2-fluoro-4-(methylsulfonyl)phenyl]-2-[(3R)-3-methylmorpholin-4-yl]-8-(1H-pyrazol-5-yl)-1,7-naphthyridine] here?
**A.** The IC50 was 7.1 nM.

**Q.** With `CNC(=O)c1ccc(-c2cc(N3CCOCC3)nc3c(-c4ccn[nH]4)nccc23)cn1` [Example 398, N-methyl-5-[2-(morpholin-4-yl)-8-(1H-pyrazol-5-yl)-1,7-naphthyridin-4-yl]pyridine-2-carboxamide] as the molecule, how does the IC50 [1] read?
**A.** Its IC50 is 120 nM.

**Q.** How did the IC50 [1] turn out when `Fc1cccc(-c2cc(N3CCOCC3)nc3c(-c4ccn[nH]4)nccc23)c1` [Example 298, 4-(3-fluorophenyl)-2-(morpholin-4-yl)-8-(1H-pyrazol-5-yl)-1,7-naphthyridine] was run?
**A.** The IC50 was 59.2 nM.

**Q.** With `C[C@@H]1COCCN1c1cc(C2CCCN(C)C2)c2ccnc(-c3ccn[nH]3)c2n1` (stereo partly drawn) [Example 244, 2-[(3R)-3-methylmorpholin-4-yl]-4-[1-methylpiperidin-3-yl]-8-(1H-pyrazol-5-yl)-1,7-naphthyridine] as the molecule, how does the IC50 [1] read?
**A.** Its IC50 is 159 nM.

**Q.** `CC(C)S(=N)(=O)c1ccc(-c2cc(N3CCOCC3)nc3c(-c4ccn[nH]4)nccc23)cc1` (stereo not drawn) [Example 25, 2-(morpholin-4-yl)-4-{4-[S-(propan-2-yl)sulfonimidoyl]phenyl}-8-(1H-pyrazol-5-yl)-1,7-naphthyridine] was tested. Which IC50 [1] did it give?
**A.** The IC50 was 110 nM.

**Q.** What about the IC50 [2] of the same molecule?
**A.** Its IC50 is 75.1 nM.

**Q.** `Cc1ncc(-c2cc(N3CCOC[C@H]3C)nc3c(-c4ccn[nH]4)nccc23)cc1F` [Example 233, 4-(5-fluoro-6-methylpyridin-3-yl)-2-[(3R)-3-methylmorpholin-4-yl]-8-(1H-pyrazol-5-yl)-1,7-naphthyridine] was tested. Which IC50 [1] did it give?
**A.** The IC50 was 42 nM.

**Q.** How did the IC50 [1] turn out when `Cc1ncc(-c2cc(N3CCOC[C@H]3C)nc3c(-c4ccn[nH]4)nccc23)s1` [Example 78, 2-[(3R)-3-methylmorpholin-4-yl]-4-(2-methyl-1,3-thiazol-5-yl)-8-(1H-pyrazol-5-yl)-1,7-naphthyridine] was run?
**A.** The IC50 was 11 nM.

**Q.** For `c1ccc2c(c1)CN(c1cc(N3CCOCC3)nc3c(-c4ccn[nH]4)nccc13)C2` [Example 420, 4-(1,3-dihydro-2H-isoindol-2-yl)-2-(morpholin-4-yl)-8-(1H-pyrazol-5-yl)-1,7-naphthyridine], which IC50 [1] is on record?
**A.** The IC50 was 602 nM.

**Q.** Which results are given for `C[C@@H]1COCCN1c1cc(S(C)(=O)=O)c2ccnc(-c3ccn[nH]3)c2n1` [Example 33, 2-[(3R)-3-methylmorpholin-4-yl]-4-(methylsulfonyl)-8-(1H-pyrazol-5-yl)-1,7-naphthyridine]?
**A.** IC50 [1]: 19.8 nM; IC50 [2]: 10.3 nM

**Q.** How did the IC50 [1] turn out when `CSCc1cc(N2CCOC[C@H]2C)nc2c(-c3ccn[nH]3)nccc12` [Example 186, 2-[(3R)-3-methylmorpholin-4-yl]-4-[(methylsulfanyl)methyl]-8-(1H-pyrazol-5-yl)-1,7-naphthyridine] was run?
**A.** The IC50 was 67.4 nM.

**Q.** For `CCP(=O)(CC)c1cc(N2CCOC[C@H]2C)nc2c(-c3ccn[nH]3)nccc12` [Example 143, 4-(diethylphosphoryl)-2-[(3R)-3-methylmorpholin-4-yl]-8-(1H-pyrazol-5-yl)-1,7-naphthyridine], which IC50 [1] is on record?
**A.** Its IC50 is 27.7 nM.

**Q.** `C[C@@H]1COCCN1c1cc(-c2ccn(C)c2)c2ccnc(-c3ccn[nH]3)c2n1` [Example 262, 2-[(3R)-3-methylmorpholin-4-yl]-4-(1-methyl-1H-pyrrol-3-yl)-8-(1H-pyrazol-5-yl)-1,7-naphthyridine] was tested. Which IC50 [1] did it give?
**A.** Its IC50 is 42.2 nM.

**Q.** Which IC50 [1] does the source give for `CS(=O)(=O)c1nc(-c2cc(N3CCOCC3)nc3c(-c4ccn[nH]4)nccc23)cs1` [Example 21, 4-[2-(methylsulfonyl)-1,3-thiazol-4-yl]-2-(morpholin-4-yl)-8-(1H-pyrazol-5-yl)-1,7-naphthyridine] here?
**A.** The IC50 was 190 nM.

**Q.** Which IC50 [1] does the source give for `CC(C)(C)NC(=O)c1cncc(-c2cc(N3CCOCC3)nc3c(-c4ccn[nH]4)nccc23)c1` [Example 399, N-tert-butyl-5-[2-(morpholin-4-yl)-8-(1H-pyrazol-5-yl)-1,7-naphthyridin-4-yl]pyridine-3-carboxamide] here?
**A.** The IC50 was 618 nM.

**Q.** Which IC50 [1] does the source give for `C[C@@H]1COCCN1c1cc(-c2ccn[nH]2)c2ccnc(-c3ccn[nH]3)c2n1` [Example 205, 2-[(3R)-3-methylmorpholin-4-yl]-4,8-di(1H-pyrazol-5-yl)-1,7-naphthyridine] here?
**A.** The IC50 was 49.3 nM.

**Q.** With `c1cc(-c2nccc3c(-c4ccc(N5CCOCC5)nc4)cc(N4CCOCC4)nc23)[nH]n1` [Example 369, 2-(morpholin-4-yl)-4-[6-(morpholin-4-yl)pyridin-3-yl]-8-(1H-pyrazol-5-yl)-1,7-naphthyridine] as the molecule, how does the IC50 [1] read?
**A.** Its IC50 is 115 nM.

**Q.** For `CS(=O)(=O)N1CCN(c2cc(N3CCOCC3)nc3c(-c4ccn[nH]4)nccc23)CC1` [Example 434, 4-[4-(methylsulfonyl)piperazin-1-yl]-2-(morpholin-4-yl)-8-(1H-pyrazol-5-yl)-1,7-naphthyridine], which IC50 [1] is on record?
**A.** Its IC50 is 31.8 nM.

**Q.** For `CCS(=O)(CC)=Nc1cc(N2CCOC[C@H]2C)nc2c(-c3ccn[nH]3)nccc12` [Example 126, 4-{[diethyl(oxido)-λ^6-sulfanylidene]amino}-2-[(3R)-3-methylmorpholin-4-yl]-8-(1H-pyrazol-5-yl)-1,7-naphthyridine], which IC50 [1] is on record?
**A.** Its IC50 is 21.5 nM.

**Q.** For `C[C@@H]1COCCN1c1cc(-c2cnn(C)c2)c2ccnc(-c3ccn[nH]3)c2n1` [Example 248, 2-[(3R)-3-methylmorpholin-4-yl]-4-(1-methyl-1H-pyrazol-4-yl)-8-(1H-pyrazol-5-yl)-1,7-naphthyridine], which IC50 [1] is on record?
**A.** The IC50 was 24.1 nM.

**Q.** With `C[C@@H]1COCCN1c1cc(-c2cccnc2F)c2ccnc(-c3ccn[nH]3)c2n1` [Example 89, 4-(2-fluoropyridin-3-yl)-2-[(3R)-3-methylmorpholin-4-yl]-8-(1H-pyrazol-5-yl)-1,7-naphthyridine] as the molecule, how does the IC50 [1] read?
**A.** Its IC50 is 8.11 nM.

**Q.** How did the IC50 [1] turn out when `COc1ncc(C(F)(F)F)cc1-c1cc(N2CCOCC2)nc2c(-c3ccn[nH]3)nccc12` [Example 404, 4-[2-methoxy-5-(trifluoromethyl)pyridin-3-yl]-2-(morpholin-4-yl)-8-(1H-pyrazol-5-yl)-1,7-naphthyridine] was run?
**A.** The IC50 was 424 nM.

**Q.** `Cc1cc(-c2cc(N3CCOCC3)nc3c(-c4ccn[nH]4)nccc23)n[nH]1` [Example 214, 4-(5-methyl-1H-pyrazol-3-yl)-2-(morpholin-4-yl)-8-(1H-pyrazol-5-yl)-1,7-naphthyridine] was tested. Which IC50 [1] did it give?
**A.** The IC50 was 176 nM.

**Q.** With `Cc1cnn(C)c1-c1cc(N2CCOC[C@H]2C)nc2c(-c3ccn[nH]3)nccc12` [Example 114, 4-(1,4-dimethyl-1H-pyrazol-5-yl)-2-[(3R)-3-methylmorpholin-4-yl]-8-(1H-pyrazol-5-yl)-1,7-naphthyridine] as the molecule, how does the IC50 [1] read?
**A.** The IC50 was 7.35 nM.

**Q.** `C[C@@H]1COCCN1c1cc(N=S(C)(=O)c2ccc(Br)cc2)c2ccnc(-c3ccn[nH]3)c2n1` (some centres unmarked) [Example 277] was tested. Which IC50 [1] did it give?
**A.** Its IC50 is 78.2 nM.

**Q.** Which IC50 [1] does the source give for `Cc1nc(S(C)(=N)=O)ccc1-c1cc(N2CCOC[C@H]2C)nc2c(-c3ccn[nH]3)nccc12` (stereo partly drawn) [Example 116, 4-[2-methyl-6-(S-methylsulfonimidoyl)pyridin-3-yl]-2-[(3R)-3-methylmorpholin-4-yl]-8-(1H-pyrazol-5-yl)-1,7-naphthyridine] here?
**A.** Its IC50 is 9.51 nM.

**Q.** For `COC(=O)c1cc(-c2cc(N3CCOCC3)nc3c(-c4ccn[nH]4)nccc23)cs1` [Example 403, methyl 4-[2-(morpholin-4-yl)-8-(1H-pyrazol-5-yl)-1,7-naphthyridin-4-yl]thiophene-2-carboxylate], which IC50 [1] is on record?
**A.** The IC50 was 194 nM.

**Q.** For `c1cc(-c2cc(N3CCOCC3)nc3c(-c4ccn[nH]4)nccc23)c2cccnc2c1` [Example 349, 2-(morpholin-4-yl)-8-(1H-pyrazol-5-yl)-4-(quinolin-5-yl)-1,7-naphthyridine], which IC50 [1] is on record?
**A.** Its IC50 is 119 nM.
